{"source": "paper PMC10221074", "about": "“Functional Profiling of the A-Family of Venom Peptides from the Wolf Spider Lycosa shansia” (Toxins, 2023)", "key": {"[1]": {"system": "B/Malaysia/2506/2004 (B-Mal)", "format": "cell-based, influenza virus"}, "A/Hamburg/05/2009 (H1N1)": {"system": "A/Hamburg/05/2009 (H1N1)", "format": "cell-based, influenza virus"}, "A/Hessen/1/2003 (H3N2)": {"system": "A/Hessen/1/2003 (H3N2)", "format": "cell-based, influenza virus"}, "[2]": {"system": "panel of seven bacterial strains", "assay": "Antibacterial growth assay (OD600), statements on the whole panel", "format": "cell-based", "conditions": "growth after 48 h"}, "[3]": {"system": "Pseudomonas aeruginosa DSM 1117", "assay": "Antibacterial growth assay (OD600)", "conditions": "OD600, medium = 100, MH II broth; for Bacterial growth relative to medium, P. aeruginosa (1117), replicate 1: replicate column 1; for Bacterial growth relative to medium, P. aeruginosa (1117), replicate 2: replicate column 2; for Bacterial growth relative to medium, P. aeruginosa (1117), replicate 3: replicate column 3"}, "[4]": {"system": "Pseudomonas aeruginosa DSM 50071", "assay": "Antibacterial growth assay (OD600)", "conditions": "OD600, medium = 100, MH II broth; for Bacterial growth relative to medium, P. aeruginosa (50071), replicate 1: replicate column 1; for Bacterial growth relative to medium, P. aeruginosa (50071), replicate 2: replicate column 2; for Bacterial growth relative to medium, P. aeruginosa (50071), replicate 3: replicate column 3"}, "[5]": {"system": "Micrococcus luteus DSM 20030", "assay": "Antibacterial growth assay (OD600)", "conditions": "for Bacterial growth relative to medium, M. luteus, replicate 1 / Bacterial growth relative to medium, M. luteus, replicate 2 / Bacterial growth relative to medium, M. luteus, replicate 3: OD600, medium = 100, MH II broth; for Bacterial growth relative to medium, M. luteus, replicate 1: replicate column 1; for Bacterial growth relative to medium, M. luteus, replicate 2: replicate column 2; for Bacterial growth relative to medium, M. luteus, replicate 3: replicate column 3", "description": "(§1) Cryo-conserved cultures of selected bacterial strains (Table 4) were transferred to Tryptic Soy Agar (TSA) plates (Carl Roth) with a sterile inoculation loop, sealed with Parafilm (BEMIS, Neenah, WI, USA), and incubated for 1–2 days at 37 °C depending on growth. Single colonies were picked and transferred into 2–3 mL of the Mueller–Hinton II (MH II) broth (BD, Heidelberg, Germany). The bacteria were cultivated overnight, subcultured on fresh medium and grown for 3–4 h before testing at 37 °C, with shaking at 180 rpm. We measured the optical density at 600 nm (OD600) of 1 mL of the bacterial suspensions in polystyrene cuvettes (SARSTED, Nümbrecht, Germany) using an Ultrospec 10 spectrophotometer (Biochrome, Cambridge, UK). We then diluted them with the MH II medium to the preferred OD600 (Table 2). The peptides were dissolved in DMSO to generate 10 mmol/L stocks and diluted with the MH II medium to 200 µM before the assay. We used 10 µg/mL (~40 µg/mL for S. epidermidis) gentamicin and colistin (Sigma-Aldrich, Taufkirchen, Germany), DMSO and the medium only as controls. The bacteria were transferred to 96-multiwell plates with a final volume of 100 µL per well (50 µL bacterial suspension, and 50 µL test peptide). The OD600 was measured at 0, 24 and 48 h using a BioTek Eon microplate reader followed by analysis with Gen5 v2.09."}, "[6]": {"system": "Staphylococcus aureus DSM 2569", "assay": "Antibacterial growth assay (OD600)", "conditions": "for Bacterial growth relative to medium, S. aureus, replicate 1 / Bacterial growth relative to medium, S. aureus, replicate 2 / Bacterial growth relative to medium, S. aureus, replicate 3: OD600, medium = 100, MH II broth; for Bacterial growth relative to medium, S. aureus, replicate 1: replicate column 1; for Bacterial growth relative to medium, S. aureus, replicate 2: replicate column 2; for Bacterial growth relative to medium, S. aureus, replicate 3: replicate column 3"}, "[7]": {"system": "Escherichia coli BL21(DE3)", "assay": "Antibacterial growth assay (OD600)", "conditions": "for Bacterial growth relative to medium, E. coli, replicate 1 / Bacterial growth relative to medium, E. coli, replicate 2 / Bacterial growth relative to medium, E. coli, replicate 3: OD600, medium = 100, MH II broth; for Bacterial growth relative to medium, E. coli, replicate 1: replicate column 1; for Bacterial growth relative to medium, E. coli, replicate 2: replicate column 2; for Bacterial growth relative to medium, E. coli, replicate 3: replicate column 3"}, "[8]": {"system": "Listeria monocytogenes DSM 20600", "assay": "Antibacterial growth assay (OD600)", "conditions": "for Bacterial growth relative to medium, L. monocytogenes, replicate 1 / Bacterial growth relative to medium, L. monocytogenes, replicate 2 / Bacterial growth relative to medium, L. monocytogenes, replicate 3: OD600, medium = 100, MH II broth; for Bacterial growth relative to medium, L. monocytogenes, replicate 1: replicate column 1; for Bacterial growth relative to medium, L. monocytogenes, replicate 2: replicate column 2; for Bacterial growth relative to medium, L. monocytogenes, replicate 3: replicate column 3", "description": "as §1"}, "[9]": {"system": "Staphylococcus epidermidis DSM 28319", "assay": "Antibacterial growth assay (OD600)", "conditions": "for Bacterial growth relative to medium, S. epidermidis, replicate 1: replicate column 1; for Bacterial growth relative to medium, S. epidermidis, replicate 2: replicate column 2; for Bacterial growth relative to medium, S. epidermidis, replicate 3: replicate column 3", "description": "as §1"}, "[10]": {"conditions": "37 °C, peptide 200 µM mixed 50 µL + 50 µL with bacteria, Figure 7: 48 h"}, "[11]": {"conditions": "OD600, medium = 100, MH II broth, 37 °C, peptide 200 µM mixed 50 µL + 50 µL with bacteria, Figure 7: 48 h"}, "[12]": {"conditions": "antibiotic control, table line says 10µg/mL (methods: ~40 µg/mL for S. epidermidis), OD600, medium = 100"}}}
{"molecule": "SLLGLLDVVKNTVGQ [LS-AMP-A11]", "values": [{"measurement": "Viability of infected cells relative to aprotinin, Replicate 1", "setting": "[1]", "value": 0.04707}, {"measurement": "Viability of infected cells relative to aprotinin, Replicate 2", "setting": "[1]", "value": 0.04802}, {"measurement": "Viability of infected cells relative to aprotinin, Replicate 3", "setting": "[1]", "value": 0.0552}, {"measurement": "Viability of infected cells relative to aprotinin, Replicate 1", "setting": "A/Hamburg/05/2009 (H1N1)", "value": 0.05004}, {"measurement": "Viability of infected cells relative to aprotinin, Replicate 2", "setting": "A/Hamburg/05/2009 (H1N1)", "value": 0.04235}, {"measurement": "Viability of infected cells relative to aprotinin, Replicate 3", "setting": "A/Hamburg/05/2009 (H1N1)", "value": 0.04417}, {"measurement": "Viability of infected cells relative to aprotinin, Replicate 4", "setting": "A/Hamburg/05/2009 (H1N1); […], replicate 4 (additional internal control)", "value": 0.03789}, {"measurement": "Viability of infected cells relative to aprotinin, Replicate 5", "setting": "A/Hamburg/05/2009 (H1N1); […], replicate 5 (additional internal control)", "value": 0.01667}, {"measurement": "Viability of infected cells relative to aprotinin, Replicate 1", "setting": "A/Hessen/1/2003 (H3N2)", "value": 0.1919}, {"measurement": "Viability of infected cells relative to aprotinin, Replicate 2", "setting": "A/Hessen/1/2003 (H3N2)", "value": 0.09823}, {"measurement": "Viability of infected cells relative to aprotinin, Replicate 3", "setting": "A/Hessen/1/2003 (H3N2)", "value": 0.08306}, {"measurement": "Antibacterial activity over the panel (in words)", "setting": "[2]", "value": "inhibited the growth of most of the bacteria except two"}, {"measurement": "Bacterial growth relative to medium, P. aeruginosa (1117), replicate 1", "setting": "[3]; [10]", "value": 82.0725}, {"measurement": "Bacterial growth relative to medium, P. aeruginosa (1117), replicate 2", "setting": "[3]; [10]", "value": 95.9276}, {"measurement": "Bacterial growth relative to medium, P. aeruginosa (1117), replicate 3", "setting": "[3]; [10]", "value": 84.5049}, {"measurement": "Bacterial growth relative to medium, P. aeruginosa (50071), replicate 1", "setting": "[4]; [10]", "value": 97.4528}, {"measurement": "Bacterial growth relative to medium, P. aeruginosa (50071), replicate 2", "setting": "[4]; [10]", "value": 114.818}, {"measurement": "Bacterial growth relative to medium, P. aeruginosa (50071), replicate 3", "setting": "[4]; [10]", "value": 88.0117}, {"measurement": "Antibacterial activity (in words)", "setting": "[5]; M. luteus DSM 20030, growth after 48 h", "value": "able to decrease the growth"}, {"measurement": "Bacterial growth relative to medium, M. luteus, replicate 1", "setting": "[5]; [10]", "value": 56.0386}, {"measurement": "Bacterial growth relative to medium, M. luteus, replicate 2", "setting": "[5]; [10]", "value": 92.3422}, {"measurement": "Bacterial growth relative to medium, M. luteus, replicate 3", "setting": "[5]; [10]", "value": 31.1812}, {"measurement": "Bacterial growth relative to medium, S. aureus, replicate 1", "setting": "[6]; [10]", "value": 50.8023}, {"measurement": "Bacterial growth relative to medium, S. aureus, replicate 2", "setting": "[6]; [10]", "value": 58.8947}, {"measurement": "Bacterial growth relative to medium, S. aureus, replicate 3", "setting": "[6]; [10]", "value": 79.7231}, {"measurement": "Antibacterial activity (in words)", "setting": "[6]; S. aureus DSM 2569, growth after 48 h", "value": "able to decrease the growth"}, {"measurement": "Antibacterial activity (in words)", "setting": "[7]; E. coli BL21(DE3), growth after 48 h", "value": "able to decrease the growth"}, {"measurement": "Bacterial growth relative to medium, E. coli, replicate 1", "setting": "[7]; [10]", "value": 64.587}, {"measurement": "Bacterial growth relative to medium, E. coli, replicate 2", "setting": "[7]; [10]", "value": 63.905}, {"measurement": "Bacterial growth relative to medium, E. coli, replicate 3", "setting": "[7]; [10]", "value": 36.8825}, {"measurement": "Antibacterial activity (in words)", "setting": "[8]; L. monocytogenes DSM 20600, growth after 48 h", "value": "able to decrease the growth"}, {"measurement": "Bacterial growth relative to medium, L. monocytogenes, replicate 1", "setting": "[8]; [10]", "value": 57.2028}, {"measurement": "Bacterial growth relative to medium, L. monocytogenes, replicate 2", "setting": "[8]; [10]", "value": 67.6393}, {"measurement": "Bacterial growth relative to medium, L. monocytogenes, replicate 3", "setting": "[8]; [10]", "value": 84.2183}, {"measurement": "Bacterial growth relative to medium, S. epidermidis, replicate 1", "setting": "[9]; [11]", "value": 49.2953}, {"measurement": "Bacterial growth relative to medium, S. epidermidis, replicate 2", "setting": "[9]; [11]", "value": 44.2655}, {"measurement": "Bacterial growth relative to medium, S. epidermidis, replicate 3", "setting": "[9]; [11]", "value": 33.4715}, {"measurement": "Antibacterial activity (in words)", "setting": "[9]; S. epidermidis DSM 28319, growth after 48 h", "value": "able to decrease the growth"}]}
{"molecule": "CNC(C)C1CCC(N)C(OC2C(N)CC(N)C(OC3OCC(C)(O)C(NC)C3O)C2O)O1", "note": "(centres unmarked) [Genta, gentamicin, reference compound]", "values": [{"measurement": "Bacterial growth relative to medium, P. aeruginosa (1117), replicate 1", "setting": "[3]; antibiotic control 10µg/mL", "value": 7.251}, {"measurement": "Bacterial growth relative to medium, P. aeruginosa (1117), replicate 2", "setting": "[3]; antibiotic control 10µg/mL", "value": 12.1419}, {"measurement": "Bacterial growth relative to medium, P. aeruginosa (1117), replicate 3", "setting": "[3]; antibiotic control 10µg/mL", "value": 0.7836}, {"measurement": "Bacterial growth relative to medium, P. aeruginosa (50071), replicate 1", "setting": "[4]; antibiotic control 10µg/mL", "value": 10.9397}, {"measurement": "Bacterial growth relative to medium, P. aeruginosa (50071), replicate 2", "setting": "[4]; antibiotic control 10µg/mL", "value": 9.403}, {"measurement": "Bacterial growth relative to medium, P. aeruginosa (50071), replicate 3", "setting": "[4]; antibiotic control 10µg/mL", "value": 6.959}, {"measurement": "Bacterial growth relative to medium, M. luteus, replicate 1", "setting": "[5]; antibiotic control 10µg/mL", "value": 34.7531}, {"measurement": "Bacterial growth relative to medium, M. luteus, replicate 2", "setting": "[5]; antibiotic control 10µg/mL", "value": 33.0988}, {"measurement": "Bacterial growth relative to medium, M. luteus, replicate 3", "setting": "[5]; antibiotic control 10µg/mL", "value": 25.6914}, {"measurement": "Bacterial growth relative to medium, S. aureus, replicate 1", "setting": "[6]; antibiotic control 10µg/mL", "value": 10.1302}, {"measurement": "Bacterial growth relative to medium, S. aureus, replicate 2", "setting": "[6]; antibiotic control 10µg/mL", "value": 22.1938}, {"measurement": "Bacterial growth relative to medium, S. aureus, replicate 3", "setting": "[6]; antibiotic control 10µg/mL", "value": 8.389}, {"measurement": "Bacterial growth relative to medium, E. coli, replicate 1", "setting": "[7]; antibiotic control 10µg/mL", "value": 15.2669}, {"measurement": "Bacterial growth relative to medium, E. coli, replicate 2", "setting": "[7]; antibiotic control 10µg/mL", "value": 26.3127}, {"measurement": "Bacterial growth relative to medium, E. coli, replicate 3", "setting": "[7]; antibiotic control 10µg/mL", "value": 7.573}, {"measurement": "Bacterial growth relative to medium, L. monocytogenes, replicate 1", "setting": "[8]; antibiotic control 10µg/mL", "value": 41.2443}, {"measurement": "Bacterial growth relative to medium, L. monocytogenes, replicate 2", "setting": "[8]; antibiotic control 10µg/mL", "value": 32.6505}, {"measurement": "Bacterial growth relative to medium, L. monocytogenes, replicate 3", "setting": "[8]; antibiotic control 10µg/mL", "value": 13.0219}, {"measurement": "Bacterial growth relative to medium, S. epidermidis, replicate 1", "setting": "[9]; [12]", "value": 41.1615}, {"measurement": "Bacterial growth relative to medium, S. epidermidis, replicate 2", "setting": "[9]; [12]", "value": 36.2191}, {"measurement": "Bacterial growth relative to medium, S. epidermidis, replicate 3", "setting": "[9]; [12]", "value": 58.2561}]}
